From patent US20150125889A1, “IN VITRO DETECTION OF MICROORGANISMS WITH AZOREDUCTASE ACTIVITY” (BIOMÉRIEUX, priority 2012, published 2015)

Experiments:
Test in all cases: Reduction of azo substrates over 24 hours at 35° C., microtitration plate (Example 1)
Assay type in all cases: cell-based
Enterococcus faecalis = tested on: Enterococcus faecalis; set-up: key to RED (substrate reduced or not): RED indicates whether the substrate is reduced (Y) or not (N); RED indicates whether the substrate is reduced (Y) or not (N); key to Decol (substrate decolourized, decrease in absorbance) / Fluo (fluorescence multiplied by 2 relative to substrate-free control) / Co (growth, absorbance at 660 nm): The symbol “+” means good growth/decolourization/significant increase in fluorescence; The symbol “+/−” means difficult growth; The symbol “−” means that there is no growth/decolourization/significant increase in fluorescence; conditions: E. faecalis, substrate 35 mg/l
How it was run: (§1)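 Each strain grown in trypcase soya broth containing 35 mg/l azo substrate from a 0.5 McFarland inoculum, read at 35 °C over 24 h. Growth followed by A660; reduction scored as decolourization (falling absorbance) and/or fluorescence doubling versus substrate-free control. Results given as qualitative +, +/−, − and reduced Y/N.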

Acinetobacter baumanii = tested on: Acinetobacter baumanii; set-up: key to RED (substrate reduced or not): RED indicates whether the substrate is reduced (Y) or not (N); RED indicates whether the substrate is reduced (Y) or not (N); key to Decol (substrate decolourized, decrease in absorbance) / Fluo (fluorescence multiplied by 2 relative to substrate-free control) / Co (growth, absorbance at 660 nm): The symbol “+” means good growth/decolourization/significant increase in fluorescence; The symbol “+/−” means difficult growth; The symbol “−” means that there is no growth/decolourization/significant increase in fluorescence; conditions: A. baumannii, substrate 35 mg/l
How it was run: as §1

Kocuria rosea = tested on: Kocuria rosea; set-up: key to RED (substrate reduced or not): RED indicates whether the substrate is reduced (Y) or not (N); RED indicates whether the substrate is reduced (Y) or not (N); key to Co (growth, absorbance at 660 nm) / Decol (substrate decolourized, decrease in absorbance) / Fluo (fluorescence multiplied by 2 relative to substrate-free control): The symbol “+” means good growth/decolourization/significant increase in fluorescence; The symbol “+/−” means difficult growth; The symbol “−” means that there is no growth/decolourization/significant increase in fluorescence; conditions: K. rosea, substrate 35 mg/l
How it was run: as §1

[1] = tested on: Staphylococcus epidermidis; set-up: key to RED (substrate reduced or not): RED indicates whether the substrate is reduced (Y) or not (N); RED indicates whether the substrate is reduced (Y) or not (N); key to Co (growth, absorbance at 660 nm) / Decol (substrate decolourized, decrease in absorbance) / Fluo (fluorescence multiplied by 2 relative to substrate-free control): The symbol “+” means good growth/decolourization/significant increase in fluorescence; The symbol “+/−” means difficult growth; The symbol “−” means that there is no growth/decolourization/significant increase in fluorescence; conditions: S. epidermidis, substrate 35 mg/l
How it was run: as §1

Candida albicans = tested on: Candida albicans; set-up: key to RED (substrate reduced or not): RED indicates whether the substrate is reduced (Y) or not (N); RED indicates whether the substrate is reduced (Y) or not (N); key to Co (growth, absorbance at 660 nm) / Decol (substrate decolourized, decrease in absorbance) / Fluo (fluorescence multiplied by 2 relative to substrate-free control): The symbol “+” means good growth/decolourization/significant increase in fluorescence; The symbol “+/−” means difficult growth; The symbol “−” means that there is no growth/decolourization/significant increase in fluorescence; conditions: substrate 35 mg/l
How it was run: as §1

Escherichia coli = tested on: Escherichia coli; set-up: key to RED (substrate reduced or not): RED indicates whether the substrate is reduced (Y) or not (N); RED indicates whether the substrate is reduced (Y) or not (N); key to Co (growth, absorbance at 660 nm) / Decol (substrate decolourized, decrease in absorbance) / Fluo (fluorescence multiplied by 2 relative to substrate-free control): The symbol “+” means good growth/decolourization/significant increase in fluorescence; The symbol “+/−” means difficult growth; The symbol “−” means that there is no growth/decolourization/significant increase in fluorescence; conditions: E. coli, substrate 35 mg/l
How it was run: as §1

Geotrichum candidum = tested on: Geotrichum candidum; set-up: key to RED (substrate reduced or not): RED indicates whether the substrate is reduced (Y) or not (N); RED indicates whether the substrate is reduced (Y) or not (N); key to Co (growth, absorbance at 660 nm) / Decol (substrate decolourized, decrease in absorbance) / Fluo (fluorescence multiplied by 2 relative to substrate-free control): The symbol “+” means good growth/decolourization/significant increase in fluorescence; The symbol “+/−” means difficult growth; The symbol “−” means that there is no growth/decolourization/significant increase in fluorescence; conditions: G. candidum, substrate 35 mg/l
How it was run: as §1

Row | Structure (SMILES) | Co (growth, absorbance at 660 nm) (Enterococcus faecalis) | Decol (substrate decolourized, decrease in absorbance) (Enterococcus faecalis) | Fluo (fluorescence multiplied by 2 relative to substrate-free control) (Enterococcus faecalis) | RED (substrate reduced or not) (Enterococcus faecalis) | Co (growth, absorbance at 660 nm) (Acinetobacter baumanii) | Decol (substrate decolourized, decrease in absorbance) (Acinetobacter baumanii) | Fluo (fluorescence multiplied by 2 relative to substrate-free control) (Acinetobacter baumanii) | RED (substrate reduced or not) (Acinetobacter baumanii) | Co (growth, absorbance at 660 nm) (Kocuria rosea) | Decol (substrate decolourized, decrease in absorbance) (Kocuria rosea) | Fluo (fluorescence multiplied by 2 relative to substrate-free control) (Kocuria rosea) | Co (growth, absorbance at 660 nm) [1] | Decol (substrate decolourized, decrease in absorbance) [1] | Fluo (fluorescence multiplied by 2 relative to substrate-free control) [1] | RED (substrate reduced or not) [1] | Co (growth, absorbance at 660 nm) (Candida albicans) | Decol (substrate decolourized, decrease in absorbance) (Candida albicans) | Fluo (fluorescence multiplied by 2 relative to substrate-free control) (Candida albicans) | RED (substrate reduced or not) (Candida albicans) | Co (growth, absorbance at 660 nm) (Escherichia coli) | also measured
1 | O=C(O)c1cc(/N=N/c2ccc(-c3nc4ccccc4s3)cc2)ccc1O [BF45, 2-Phenyl-benzothiazole-4′-azo-4″- hydroxybenzene-3″-carboxylic acid] | + | + | + | Y | + | − | + | Y | + | − | + | + | − | + | Y | + | − | − | N | + | RED (substrate reduced or not) (Kocuria rosea): Y; Decol (substrate decolourized, decrease in absorbance) (Escherichia coli): −; Fluo (fluorescence multiplied by 2 relative to substrate-free control) (Escherichia coli): +; RED (substrate reduced or not) (Escherichia coli): Y; Co (growth, absorbance at 660 nm) (Geotrichum candidum): +; Decol (substrate decolourized, decrease in absorbance) (Geotrichum candidum): −; Fluo (fluorescence multiplied by 2 relative to substrate-free control) (Geotrichum candidum): −; RED (substrate reduced or not) (Geotrichum candidum): N
2 | CN(C)c1ccc(N=Nc2ccc(S(=O)(=O)[O-])cc2)cc1.[Na+] [Methyl orange] | + | + | + | Y | + | − | − | N | − | − | − | + | − | − | N | + | − | − | N | + | Decol (substrate decolourized, decrease in absorbance) (Escherichia coli): −; Fluo (fluorescence multiplied by 2 relative to substrate-free control) (Escherichia coli): −; RED (substrate reduced or not) (Escherichia coli): N; Co (growth, absorbance at 660 nm) (Geotrichum candidum): +; Decol (substrate decolourized, decrease in absorbance) (Geotrichum candidum): −; Fluo (fluorescence multiplied by 2 relative to substrate-free control) (Geotrichum candidum): −; RED (substrate reduced or not) (Geotrichum candidum): N
3 | CN(C)c1ccc(/N=N/c2ccccc2C(=O)O)cc1 [Methyl red] | + | + | + | Y | + | + | + | Y | +/− | +/− | + | + | + | + | Y | + | + | + | Y | + | RED (substrate reduced or not) (Kocuria rosea): Y; Decol (substrate decolourized, decrease in absorbance) (Escherichia coli): +; Fluo (fluorescence multiplied by 2 relative to substrate-free control) (Escherichia coli): +; RED (substrate reduced or not) (Escherichia coli): Y; Co (growth, absorbance at 660 nm) (Geotrichum candidum): +/−; Decol (substrate decolourized, decrease in absorbance) (Geotrichum candidum): +/−; Fluo (fluorescence multiplied by 2 relative to substrate-free control) (Geotrichum candidum): +; RED (substrate reduced or not) (Geotrichum candidum): Y
4 | O=S(=O)([O-])c1ccc(N=Nc2c(O)ccc3ccccc23)cc1.[Na+] [Orange II] | + | + | + | Y | + | − | − | N | − | − | − | + | − | − | N | + | − | − | N | + | Decol (substrate decolourized, decrease in absorbance) (Escherichia coli): −; Fluo (fluorescence multiplied by 2 relative to substrate-free control) (Escherichia coli): −; RED (substrate reduced or not) (Escherichia coli): N; Co (growth, absorbance at 660 nm) (Geotrichum candidum): +/−; Decol (substrate decolourized, decrease in absorbance) (Geotrichum candidum): −; Fluo (fluorescence multiplied by 2 relative to substrate-free control) (Geotrichum candidum): −; RED (substrate reduced or not) (Geotrichum candidum): N
5 | O=C([O-])C1=NN(c2ccc(S(=O)(=O)[O-])cc2)C(=O)C1/N=N/c1ccc(S(=O)(=O)[O-])cc1.[Na+].[Na+].[Na+] (centres unmarked) [Tartrazine] | + | + | +/− | Y | + | − | − | N | − | − | − | + | − | − | N | + | − | − | N | + | Decol (substrate decolourized, decrease in absorbance) (Escherichia coli): −; Fluo (fluorescence multiplied by 2 relative to substrate-free control) (Escherichia coli): −; RED (substrate reduced or not) (Escherichia coli): N; Co (growth, absorbance at 660 nm) (Geotrichum candidum): +/−; Decol (substrate decolourized, decrease in absorbance) (Geotrichum candidum): −; Fluo (fluorescence multiplied by 2 relative to substrate-free control) (Geotrichum candidum): −; RED (substrate reduced or not) (Geotrichum candidum): N
